Consider 2 compounds from patent US20120264811A1, “Elongator Proteins and Use Thereof as DNA Demethylases” (The University of North Carolina at Chapel Hill, priority 2009, published 2012).

For assay [1], the system named is NIH3T3 cells that stably express CxxC-EGFP. Put plainly: CxxC-EGFP reporter dot formation in NIH3T3 cells. As to conditions: 5 μM for 72 hours. The class given is cell-based, mouse.
The subject of assay [2] is paternal DNA demethylation. Put plainly: chemical injection into oocytes, paternal DNA demethylation. The class given is cell-based, mouse. To be noted: approximately 10 pl of 10 μM in ethanol injected; final concentration estimated 0.4 μM. As to the method: For chemical injection, approximately 10 pl of 3,5-Di-tert-butyltoluene and butylated hydroxytoluence (Sigma Aldrich) at the concentration of 10 μM in ethanol were injected with H3.3-mRFP1 mRNA. The final chemical concentration is estimated as
0.4 μM based on an estimated mouse oocyte volume of 270 pl. The final estimated ethanol concentration is about 4%. For determination of knockdown efficiency, RNA isolated from 10-20 zygotes at PN4-5 stage was used for reverse transcription using the SuperScript III Cell Direct cDNA synthesis kit (Invitrogen) followed by quantitative PCR (qPCR) using SYBR GreenER (Invitrogen). Results were normalized with 18S rRNA as a standard.

Entries after “also recorded” stand apart in the source; their conditions may differ.

For `Nc1ncn([C@H]2C[C@H](O)[C@@H](CO)O2)c(=O)n1` [5-Aza-dC, 5-Aza-2′ deoxycytidine], the “number and intensity of GFP bright dots (nuclear dot-formation of CxxC probe)” value in assay [1] is on record as “clear increase; also recorded: Enhanced nuclear dot-formation”.

For `Cc1cc(C(C)(C)C)c(O)c(C(C)(C)C)c1` [butylated hydroxytoluene], the “paternal DNA demethylation after chemical injection” value in assay [2] is listed as “blocked DNA demethylation”.
